This note sets out measurements from ChEMBL document CHEMBL1134927, “A series of C-terminal amino alcohol dipeptide A beta inhibitors” (Bioorg Med Chem Lett, 2002).

The experiment relates to HEK293. Kind of experiment: Effective dose required to inhibit beta-amyloid formation in a human kidney cell line (HEK 293). It is filed as functional. The note with it: read-out: ED50 (the source's name).

For `C[C@H](NC(=O)Cc1cc(F)cc(F)c1)C(=O)N[C@@H](CO)c1ccccc1`, the EC50 is greater than 10000 nM. For `C[C@H](NC(=O)[C@@H](O)c1cc(F)cc(F)c1)C(=O)N[C@H](CO)CC1CCCCC1`, the EC50 was 200 nM.

Consider `CSCC[C@@H](CO)NC(=O)[C@H](C)NC(=O)Cc1cc(F)cc(F)c1`, for which the EC50 was 490 nM. In the case of `C[C@H](NC(=O)[C@@H](O)c1cc(F)cc(F)c1)C(=O)N[C@H](CO)CCCc1ccccc1` it was 130 nM; in that of `C[C@H](NC(=O)[C@@H](O)c1cc(F)cc(F)c1)C(=O)N[C@H](CO)CCc1ccccc1`, 270 nM; in that of `CSCC[C@@H](CO)NC(=O)[C@H](C)NC(=O)[C@@H](O)c1cc(F)cc(F)c1`, 960 nM. As for `C[C@H](NC(=O)Cc1cc(F)cc(F)c1)C(=O)N[C@@H](c1ccccc1)[C@H](O)c1ccccc1`, the figure is 3500 nM; as for `CCCC[C@@H](CO)NC(=O)[C@H](C)NC(=O)Cc1cc(F)cc(F)c1`, 460 nM. In the case of `CCCC[C@H](CO)NC(=O)[C@H](C)NC(=O)[C@@H](O)c1cc(F)cc(F)c1` it was 24500 nM; in that of `C[C@H](NC(=O)Cc1cc(F)cc(F)c1)C(=O)N[C@H](CO)c1ccccc1`, 180 nM.

`C[C@H](NC(=O)Cc1cc(F)cc(F)c1)C(=O)NCCO`: the EC50 was greater than 10000 nM.

In the case of `CCCC[C@@H](CO)NC(=O)[C@H](C)NC(=O)[C@@H](O)c1cc(F)cc(F)c1`, the EC50 came to 600 nM.

Regarding `CCCC[C@H](NC(=O)[C@H](C)NC(=O)Cc1cc(F)cc(F)c1)C(=O)OC`, the EC50 stood at 15 nM. Regarding `CCCC[C@H](NC(=O)[C@@H](C)NC(=O)Cc1cc(F)cc(F)c1)C(=O)OC`, the EC50 came to 9400 nM. With `C[C@H](NC(=O)Cc1cc(F)cc(F)c1)C(=O)N[C@H]1c2ccccc2C[C@H]1O`, the EC50 turned out to be 630 nM. As for `C[C@H](NC(=O)Cc1cc(F)cc(F)c1)C(=O)N[C@H](c1ccccc1)[C@@H](O)c1ccccc1`, the figure is greater than 10000 nM; as for `C[C@H](NC(=O)Cc1cc(F)cc(F)c1)C(=O)N(C)[C@H](C)[C@H](O)c1ccccc1`, greater than 10000 nM. For the compound `C#CC[C@@H](CO)NC(=O)[C@H](C)NC(=O)Cc1cc(F)cc(F)c1`, the EC50 was determined as 10000 nM. With `C[C@H](NC(=O)Cc1cc(F)cc(F)c1)C(=O)N[C@H](C)[C@@H](O)c1ccccc1`, the EC50 is greater than 10000 nM. In the case of `C[C@H](NC(=O)Cc1cc(F)cc(F)c1)C(=O)N[C@@H](C)[C@H](O)c1ccccc1` it was greater than 10000 nM. As for `COC(=O)C[C@@H](O)[C@H](Cc1ccccc1)NC(=O)[C@H](C)NC(=O)Cc1cc(F)cc(F)c1`, the figure is greater than 10000 nM.

On to `C[C@H](NC(=O)Cc1cc(F)cc(F)c1)C(=O)N(C)[C@@H](C)[C@@H](O)c1ccccc1`, for which the EC50 is greater than 10000 nM.

For `CCCC[C@H](CO)NC(=O)[C@H](C)NC(=O)Cc1cc(F)cc(F)c1`, the EC50 was greater than 29000 nM. In the case of `C[C@H](NC(=O)Cc1cc(F)cc(F)c1)C(=O)N[C@H](CO)CCCc1ccccc1` it was 870 nM. As for `C[C@H](NC(=O)Cc1cc(F)cc(F)c1)C(=O)N[C@H](CO)CC1CCCCC1`, the figure is 800 nM; as for `C#CC[C@@H](CO)NC(=O)[C@H](C)NC(=O)[C@@H](O)c1cc(F)cc(F)c1`, 2300 nM; as for `C[C@H](NC(=O)Cc1cc(F)cc(F)c1)C(=O)N[C@H](CO)Cc1ccccc1`, 2700 nM.

Regarding `C[C@H](NC(=O)Cc1cc(F)cc(F)c1)C(=O)NC1c2ccccc2C[C@@H]1O` (single isomer, unassigned), the EC50 is greater than 10000 nM.
